# Data from patent US6479435B1, “Diaryl ethers and processes for their preparation and herbicidal and desiccant compositions containing them” (ISK Americas Incorporated, priority 1997, dated 2002).
# Tests used:
# Type in all cases: in vivo
# [1] = test system: soybean (Glycine max L., var. Pella 86, SOY); experiment: Pre-emerge greenhouse test, crop damage rating; set-up: key to SOY crop damage rating: 0 = no damage, 100 = complete death of all plants; conditions: 14 days after application, rating scale 0-100
# Summary of the method: (§1)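 Seeds sown in sandy loam mix one day before track-sprayer application of compounds in acetone at 125–1000 g ai/ha (187 l/ha), then surface-watered to incorporate and bottom-watered. Visual rating 14 days after application on a 0–100 scale (0 = no damage, 100 = all plants dead).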
# [2] = test system: lambsquarters (Chenopodium album, CHEAL); experiment: Pre-emerge greenhouse herbicide test, phytotoxicity rating; conditions: 14 days after application, rating scale 0-100
# Summary of the method: as §1
# [3] = test system: barnyardgrass (Echinochloa crusgalli, ECHCG); experiment: as above; conditions: 14 days after application, rating scale 0-100
# Summary of the method: as §1
# [4] = test system: velvetleaf (Abutilon theophrasti, ABUTH); experiment: as above; conditions: 14 days after application, rating scale 0-100
# Summary of the method: as §1
# [5] = test system: ivyleaf morningglory (Ipomoea hederacea, IPOHE); experiment: as above; conditions: 14 days after application, rating scale 0-100
# Summary of the method: as §1
# [6] = test system: large crabgrass (Digitaria sanguinalis, DIGSA); experiment: as above; conditions: 14 days after application, rating scale 0-100
# Summary of the method: as §1
# [7] = test system: sicklepod (Cassia obtusifolia, CASOB); experiment: as above; conditions: 14 days after application, rating scale 0-100
# Summary of the method: as §1
# [8] = test system: green foxtail (Setaria viridis, SETVI); experiment: as above; conditions: 14 days after application, rating scale 0-100
# Summary of the method: as §1
# [9] = test system: Johnsongrass (Sorghum halepense, SORHA); experiment: as above; conditions: 14 days after application, rating scale 0-100
# Summary of the method: as §1
# [10] = test system: redroot pigweed (Amaranthus retroflexus, AMARE); experiment: as above; conditions: 14 days after application, rating scale 0-100
# Summary of the method: as §1
# [11] = test system: common ragweed (Ambrosia artemisiifolia L., AMBEL); experiment: Post-emerge greenhouse herbicide test, phytotoxicity rating; conditions: 14 days after application, scale 0-100
# From the text: A standard greenhouse herbicide activity screening system was used to evaluate the herbicidal efficacy and crop safety of these test compounds. Six broadleaf weed species including redroot pigweed (Amaranthus retroflexus, AMARE), velvetleaf (Abutilon theophrasti, ABUTH), sicklepod (Cassia obtusifolia, CASOB), ivyleaf morningglory (Ipomoea hederacea, IPOHE), lambsquarters (Chenopodium album, CHEAL) and common ragweed (Ambrosia artemisiifolia L., AMBEL) were used as test species. Four grass weed species including green foxtail (Setaria viridis, SETVI), barnyardgrass (Echinochloa crusgalli, ECHCG), Johnsongrass (Sorghum halepense, SORHA), and large crabgrass (Digitaria sanguinalis, DIGSA) were also used. In addition, three crop species, field corn (Zea mays L., var. Dekalb 535, CORN), soybean (Glycine max L., var. Pella 86, SOY), and upland rice (Oryza sp., var.Tebonnet, RICE) were included.
# All test compounds were dissolved in acetone and applied to the test units in a volume of 187 l/ha. […] Plants were arranged on a shelf so that the top of the canopy (post-emerge) or top of the soil surface (pre-emerge) was 40-45 cm below the nozzle. Pressurized air was used to force the test solution through the nozzle as it was mechanically advanced (via electrically driven chain drive) over the top of all test plants/pots. This application simulates a typical commercial field herbicide application.
# In the post-emerge test, a commercial non-ionic surfactant was also included (0.25% v/v) to enhance wetting of the leaf surfaces Qf target plants at rates ranging from 63 g ai/ha to 1000 g ai/ha. For post-emerge tests, seeds were planted 8-21 days prior to the test to allow emergence and good foliage development prior to application of the test substances. At the time of the post-emerge application, plants of all species were usually at the 2-3 leaf stage of development. Post-emerge test units were always bottom-watered.
# At 14 days after application of the test materials, phytotoxicity ratings were recorded. A rating scale of 0-100 was used as previously described in Research Methods in Weed Science, 2nd edition, B. Truelove, Ed., Southern Weed Science Society, Auburn University, Auburn, Ala., 1977. Briefly, “0” corresponds to no damage and “100” corresponds to complete death of all plants in the test unit. This scale was used both to determine efficacy against weed species and damage to crop species. Herbicide activity data for various compounds of this invention, which are shown by compound number in Tables 1-9, are shown in Tables 13 and 14.
# [12] = test system: soybean (Glycine max L., var. Pella 86, SOY); experiment: Post-emerge greenhouse test, crop damage rating; set-up: key to crop damage rating SOY: 0-100 scale: 0 = no damage, 100 = complete death of all plants; conditions: 14 days after application, scale 0-100
# Summary of the method: (§2)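 Compounds in acetone with 0.25% v/v non-ionic surfactant were track-sprayed at 187 l/ha over plants at the 2-3 leaf stage, at 63 to 1000 g ai/ha. Pots were bottom-watered. Injury was scored visually 14 days later on a 0-100 scale, where 0 is no damage and 100 is complete plant death.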
# [13] = test system: lambsquarters (Chenopodium album, CHEAL); experiment: Post-emerge greenhouse herbicide test, phytotoxicity rating; conditions: 14 days after application, scale 0-100
# Summary of the method: as §2
# [14] = test system: barnyardgrass (Echinochloa crusgalli, ECHCG); experiment: as above; conditions: 14 days after application, scale 0-100
# Summary of the method: as §2
# [15] = test system: velvetleaf (Abutilon theophrasti, ABUTH); experiment: as above; conditions: 14 days after application, scale 0-100
# Summary of the method: as §2
# [16] = test system: ivyleaf morningglory (Ipomoea hederacea, IPOHE); experiment: as above; conditions: 14 days after application, scale 0-100
# Summary of the method: as §2
# [17] = test system: large crabgrass (Digitaria sanguinalis, DIGSA); experiment: as above; conditions: 14 days after application, scale 0-100
# Summary of the method: as §2
# [18] = test system: sicklepod (Cassia obtusifolia, CASOB); experiment: as above; conditions: 14 days after application, scale 0-100
# Summary of the method: as §2
# [19] = test system: green foxtail (Setaria viridis, SETVI); experiment: as above; conditions: 14 days after application, scale 0-100
# Summary of the method: as §2
# [20] = test system: Johnsongrass (Sorghum halepense, SORHA); experiment: as above; conditions: 14 days after application, scale 0-100
# Summary of the method: as §2
# [21] = test system: redroot pigweed (Amaranthus retroflexus, AMARE); experiment: as above; conditions: 14 days after application, scale 0-100
# Summary of the method: as §2
# [22] = test system: upland rice (Oryza sp., var.Tebonnet, RICE); experiment: Pre-emerge greenhouse test, crop damage rating; conditions: 14 days after application, rating scale 0-100
# Summary of the method: as §1
# [23] = test system: field corn (Zea mays L., var. Dekalb 535, CORN); experiment: Pre-emerge greenhouse test, crop damage rating; conditions: 14 days after application, rating scale 0-100
# Summary of the method: as §1
# [24] = test system: upland rice (Oryza sp., var.Tebonnet, RICE); experiment: Post-emerge greenhouse test, crop damage rating; conditions: 14 days after application, scale 0-100
# Summary of the method: as §2
# [25] = test system: field corn (Zea mays L., var. Dekalb 535, CORN); experiment: Post-emerge greenhouse test, crop damage rating; conditions: 14 days after application, scale 0-100
# Summary of the method: as §2
compound,measurement,setting,value
CCOC(=O)C(C)Oc1ccc(Oc2cc(-n3c(=O)n4n(c3=O)CCCC4)c(F)cc2Cl)c([N+](=O)[O-])c1 (stereo not shown) [Compound 8-41],SOY crop damage rating,[1]; Rate 125 g al/ha,0
same,SOY crop damage rating,[1]; Rate 250 g al/ha,0
same,CHEAL phytotoxicity rating,[2]; Rate 125 g al/ha,70
same,CHEAL phytotoxicity rating,[2]; Rate 250 g al/ha,90
same,ECHCG phytotoxicity rating,[3]; Rate 125 g al/ha,0
same,ECHCG phytotoxicity rating,[3]; Rate 250 g al/ha,0
same,ABUTH phytotoxicity rating,[4]; Rate 125 g al/ha,0
same,ABUTH phytotoxicity rating,[4]; Rate 250 g al/ha,70
same,IPOHE phytotoxicity rating,[5]; Rate 125 g al/ha,0
same,IPOHE phytotoxicity rating,[5]; Rate 250 g al/ha,0
same,DIGSA phytotoxicity rating,[6]; Rate 125 g al/ha,0
same,DIGSA phytotoxicity rating,[6]; Rate 250 g al/ha,0
same,CASOB phytotoxicity rating,[7]; Rate 125 g al/ha,0
same,CASOB phytotoxicity rating,[7]; Rate 250 g al/ha,0
same,SETVI phytotoxicity rating,[8]; Rate 125 g al/ha,10
same,SETVI phytotoxicity rating,[8]; Rate 250 g al/ha,50
same,SORHA phytotoxicity rating,[9]; Rate 125 g al/ha,0
same,SORHA phytotoxicity rating,[9]; Rate 250 g al/ha,0
same,AMARE phytotoxicity rating,[10]; Rate 125 g al/ha,80
same,AMARE phytotoxicity rating,[10]; Rate 250 g al/ha,100
same,phytotoxicity rating AMBEL,[11]; rate 63 g ai/ha,00
same,phytotoxicity rating AMBEL,[11]; rate 250 g ai/ha,30
same,crop damage rating SOY,[12]; rate 63 g ai/ha,30
same,crop damage rating SOY,[12]; rate 250 g ai/ha,60
same,phytotoxicity rating CHEAL,[13]; rate 63 g ai/ha,40
same,phytotoxicity rating CHEAL,[13]; rate 250 g ai/ha,50
same,phytotoxicity rating ECHCG,[14]; rate 63 g ai/ha,0
same,phytotoxicity rating ECHCG,[14]; rate 250 g ai/ha,0
same,phytotoxicity rating ABUTH,[15]; rate 63 g ai/ha,95
same,phytotoxicity rating ABUTH,[15]; rate 250 g ai/ha,100
same,phytotoxicity rating IPOHE,[16]; rate 63 g ai/ha,30
same,phytotoxicity rating IPOHE,[16]; rate 250 g ai/ha,100
same,phytotoxicity rating DIGSA,[17]; rate 63 g ai/ha,0
same,phytotoxicity rating DIGSA,[17]; rate 250 g ai/ha,0
same,phytotoxicity rating CASOB,[18]; rate 63 g ai/ha,30
same,phytotoxicity rating CASOB,[18]; rate 250 g ai/ha,100
same,phytotoxicity rating SETVI,[19]; rate 63 g ai/ha,0
same,phytotoxicity rating SETVI,[19]; rate 250 g ai/ha,0
same,phytotoxicity rating SORHA,[20]; rate 63 g ai/ha,0
same,phytotoxicity rating SORHA,[20]; rate 250 g ai/ha,0
same,phytotoxicity rating AMARE,[21]; rate 63 g ai/ha,40
same,phytotoxicity rating AMARE,[21]; rate 250 g ai/ha,40
same,RICE crop damage rating,[22]; Rate 125 g al/ha,0
same,RICE crop damage rating,[22]; Rate 250 g al/ha,0
same,CORN crop damage rating,[23]; Rate 125 g al/ha,0
same,CORN crop damage rating,[23]; Rate 250 g al/ha,0
same,crop damage rating RICE,[24]; rate 63 g ai/ha,0
same,crop damage rating RICE,[24]; rate 250 g ai/ha,0
same,crop damage rating CORN,[25]; rate 63 g ai/ha,0
same,crop damage rating CORN,[25]; rate 250 g ai/ha,0
CSc1cccnc1Oc1cc(-n2c(=O)n3n(c2=S)CCCC3)c(F)cc1Cl [Compound 8-43],SOY crop damage rating,[1]; Rate 125 g al/ha,0
same,SOY crop damage rating,[1]; Rate 250 g al/ha,0
same,CHEAL phytotoxicity rating,[2]; Rate 125 g al/ha,100
same,CHEAL phytotoxicity rating,[2]; Rate 250 g al/ha,100
same,ECHCG phytotoxicity rating,[3]; Rate 125 g al/ha,0
same,ECHCG phytotoxicity rating,[3]; Rate 250 g al/ha,0
same,ABUTH phytotoxicity rating,[4]; Rate 125 g al/ha,10
same,ABUTH phytotoxicity rating,[4]; Rate 250 g al/ha,30
same,IPOHE phytotoxicity rating,[5]; Rate 125 g al/ha,0
same,IPOHE phytotoxicity rating,[5]; Rate 250 g al/ha,20
same,DIGSA phytotoxicity rating,[6]; Rate 125 g al/ha,90
same,DIGSA phytotoxicity rating,[6]; Rate 250 g al/ha,100
same,CASOB phytotoxicity rating,[7]; Rate 125 g al/ha,20
same,CASOB phytotoxicity rating,[7]; Rate 250 g al/ha,30
same,SETVI phytotoxicity rating,[8]; Rate 125 g al/ha,100
same,SETVI phytotoxicity rating,[8]; Rate 250 g al/ha,100
same,SORHA phytotoxicity rating,[9]; Rate 125 g al/ha,0
same,SORHA phytotoxicity rating,[9]; Rate 250 g al/ha,0
same,AMARE phytotoxicity rating,[10]; Rate 125 g al/ha,20
same,AMARE phytotoxicity rating,[10]; Rate 250 g al/ha,70
same,phytotoxicity rating AMBEL,[11]; rate 63 g ai/ha,100
same,phytotoxicity rating AMBEL,[11]; rate 250 g ai/ha,100
same,crop damage rating SOY,[12]; rate 63 g ai/ha,80
same,crop damage rating SOY,[12]; rate 250 g ai/ha,100
same,phytotoxicity rating CHEAL,[13]; rate 63 g ai/ha,90
same,phytotoxicity rating CHEAL,[13]; rate 250 g ai/ha,100
same,phytotoxicity rating ECHCG,[14]; rate 63 g ai/ha,20
same,phytotoxicity rating ECHCG,[14]; rate 250 g ai/ha,30
same,phytotoxicity rating ABUTH,[15]; rate 63 g ai/ha,100
same,phytotoxicity rating ABUTH,[15]; rate 250 g ai/ha,100
same,phytotoxicity rating IPOHE,[16]; rate 63 g ai/ha,100
same,phytotoxicity rating IPOHE,[16]; rate 250 g ai/ha,100
same,phytotoxicity rating DIGSA,[17]; rate 63 g ai/ha,0
same,phytotoxicity rating DIGSA,[17]; rate 250 g ai/ha,20
same,phytotoxicity rating CASOB,[18]; rate 63 g ai/ha,95
same,phytotoxicity rating CASOB,[18]; rate 250 g ai/ha,100
same,phytotoxicity rating SETVI,[19]; rate 63 g ai/ha,40
same,phytotoxicity rating SETVI,[19]; rate 250 g ai/ha,60
same,phytotoxicity rating SORHA,[20]; rate 63 g ai/ha,20
same,phytotoxicity rating SORHA,[20]; rate 250 g ai/ha,30
same,phytotoxicity rating AMARE,[21]; rate 63 g ai/ha,60
same,phytotoxicity rating AMARE,[21]; rate 250 g ai/ha,90
same,RICE crop damage rating,[22]; Rate 125 g al/ha,20
same,RICE crop damage rating,[22]; Rate 250 g al/ha,20
same,CORN crop damage rating,[23]; Rate 125 g al/ha,0
same,CORN crop damage rating,[23]; Rate 250 g al/ha,0
same,crop damage rating RICE,[24]; rate 63 g ai/ha,10
same,crop damage rating RICE,[24]; rate 250 g ai/ha,30
same,crop damage rating CORN,[25]; rate 63 g ai/ha,20
same,crop damage rating CORN,[25]; rate 250 g ai/ha,30
